pIC50: −log10 of the molar value. Counter-ions that a name gives are not always drawn.
target: PDE9 (Homo sapiens (Human), UniProt O76083); assay: PDE9-inhibiting activity (SPA enzyme assay); type: biochemical; conditions: IC50 values; cGMP 1 μM substrate, 30° C.; read-out: PDE9 inhibition
Experimental: The PDE9-inhibiting activity was measured by the following method. That is, to a buffer solution containing tris(hydroxymethyl)aminomethane-hydrochloric acid (40 mM, pH 8.0), magnesium chloride (5 mM), and 2-mercaptoethanol (4 mM) were added cGMP (1 μM) and ^3H-cGMP (0.33 μCi/ml) to give a substrate buffer solution. A test substance solution and an enzyme solution which had been adjusted to an optimal concentration were added thereto to perform a reaction at 30° C. The enzyme reaction was stopped by the addition of Scintillation Proximity Assay (SPA) Beads (Perkin Elmer, USA) containing 5 mM 3-isobutyl-1-methylxanthine (IBMX). For the enzyme activity, the amount of 5′-GMP, which is a reaction degradation product bound to SPA beads, was measured with a TopCount microplate reader (Hewlett Packard, USA). The inhibitory rate was calculated by taking the radioactivity of the control containing no test substance as (A), taking the radioactivity of the blank containing no enzyme as (B), and taking the radioactivity of the test substance as (C), and using the following equation.

PDE9, sequence (O76083 whole entry): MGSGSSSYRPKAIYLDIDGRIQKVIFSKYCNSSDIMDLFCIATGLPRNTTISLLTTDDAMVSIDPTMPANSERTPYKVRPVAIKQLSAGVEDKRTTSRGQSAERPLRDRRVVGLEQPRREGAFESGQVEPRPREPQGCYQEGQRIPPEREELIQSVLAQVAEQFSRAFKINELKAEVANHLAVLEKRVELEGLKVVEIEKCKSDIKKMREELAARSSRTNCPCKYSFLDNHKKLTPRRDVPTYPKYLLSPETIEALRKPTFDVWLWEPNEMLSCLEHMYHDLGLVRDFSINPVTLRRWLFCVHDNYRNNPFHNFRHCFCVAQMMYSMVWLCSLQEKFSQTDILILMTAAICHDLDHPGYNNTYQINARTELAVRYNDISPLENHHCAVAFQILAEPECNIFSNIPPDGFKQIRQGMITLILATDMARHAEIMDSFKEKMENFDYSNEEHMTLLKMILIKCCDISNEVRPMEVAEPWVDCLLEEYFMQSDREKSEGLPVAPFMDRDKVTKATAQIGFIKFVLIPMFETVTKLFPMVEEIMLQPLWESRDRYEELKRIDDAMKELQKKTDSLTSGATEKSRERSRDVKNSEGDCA

pIC50 | Structure (SMILES)
8.26 | Cc1cc2[nH]c(=O)c3cnn([C@H]4CCN(C)C4)c3c2cc1C(=O)N1CCN(c2ccc(F)c(C)n2)[C@H](C)C1 [Example 182]
8.01 | COCCC1CCN(C(=O)c2cc3c(cc2C)[nH]c(=O)c2cnn([C@H]4CCOC4)c23)CC1 [Example 668]
8.36 | Cc1cc2[nH]c(=O)c3cnn([C@H]4CCN(C)C4)c3c2cc1C(=O)N1CCN(c2ccc(F)c(C)n2)[C@@H](C)C1 [Example 181]
8.89 | Cc1cc2[nH]c(=O)c3cnn(CC4CC4)c3c2cc1C(=O)N1CCN(CCC(F)(F)F)[C@@H](C)C1 [Example 210]
8.52 | Cc1cc2[nH]c(=O)c3cnn(C4CCOCC4)c3c2cc1C(=O)N1CCN(CCCC(F)(F)F)CC1 [Example 139]
8.28 | COCCCCN1CCN(C(=O)c2cc3c(cc2C)[nH]c(=O)c2cnn(C4CCC4)c23)C[C@@H]1C [Example 146]
8.42 | COCCCCN1CCN(C(=O)c2cc3c(cc2C)[nH]c(=O)c2cnn(C4CCCC4)c23)C[C@@H]1C [Example 186]
7.96 | Cc1cc2[nH]c(=O)c3cnn(C4CCOCC4)c3c2cc1C(=O)N1CCC(C(F)(F)F)CC1 [Example 192]
7.55 | CCOCCCCN1CCN(C(=O)c2cc3c(cc2C)[nH]c(=O)c2cnn([C@H]4CCOC4)c23)CC1 [Example 660]
7.82 | Cc1cc2[nH]c(=O)c3cnn([C@H]4CCOC4)c3c2cc1C(=O)N1CCN(CCCOC(F)(F)F)CC1 [Example 219]
8.77 | Cc1cc2[nH]c(=O)c3cnn(C4CCOCC4)c3c2cc1C(=O)N1CCN(CCC(F)(F)F)[C@@H](C)C1 [Example 207]
8.05 | COc1cc2[nH]c(=O)c3cnn(C4CCCC4)c3c2cc1C(=O)NCC(C)(C)N1CCOCC1 [Example 119]
7.80 | Cc1cc2[nH]c(=O)c3cnn([C@H]4CCOC4)c3c2cc1C(=O)N1CCC(OC[C@@H](C)F)CC1 [Example 220]
8.92 | Cc1cc2[nH]c(=O)c3cnn(CC4CCC4)c3c2cc1C(=O)N1CCN(CCC(F)(F)F)[C@@H](C)C1 [Example 211]
8.62 | Cc1cc2[nH]c(=O)c3cnn(C4CCCC4)c3c2cc1C(=O)N1CCN(CCC(F)(F)F)[C@@H](C)C1 [Example 212]
8.08 | COCCCCN1C[C@H](C)N(C(=O)c2cc3c(cc2C)[nH]c(=O)c2cnn(CC4CC4)c23)C[C@H]1C [Example 187]
8.10 | Cc1cc2[nH]c(=O)c3cnn(C4CCOCC4)c3c2cc1C(=O)N1CC(N(C)CCC(F)(F)F)C1 [Example 150]
8.05 | Cc1cc2[nH]c(=O)c3cnn([C@H]4CCOC4)c3c2cc1C(=O)N1CCN(CCCC(F)(F)F)CC1 [Example 200]
7.85 | Cc1cc2[nH]c(=O)c3cnn(CC4CC4)c3c2cc1C(=O)N1C[C@@H](C)N(CCC(F)(F)F)C[C@@H]1C [Example 188]
8.02 | Cc1cc2[nH]c(=O)c3cnn([C@H]4CCOC4)c3c2cc1C(=O)N1CCC(OCC(C)(F)F)CC1 [Example 191]
8.33 | COCCCN1CCN(C(=O)c2cc3c(cc2C)[nH]c(=O)c2cnn(C4CCCC4)c23)C[C@@H]1C [Example 655]
8.49 | Cc1cc2[nH]c(=O)c3cnn([C@H]4CCOC4)c3c2cc1C(=O)N1CCC(OCC2CC2)CC1 [Example 198]

pIC50 | Structure (SMILES)
8.37 | CCOCCC1CCN(C(=O)c2cc3c(cc2C)[nH]c(=O)c2cnn(C4CCOCC4)c23)CC1 [Example 168]
8.30 | COCCCCN(C)[C@H]1CCN(C(=O)c2cc3c(cc2C)[nH]c(=O)c2cnn(C4CCOCC4)c23)C1 [Example 127]
8.96 | CCc1cc2[nH]c(=O)c3cnn(C4CCOCC4)c3c2cc1C(=O)N1CCN(CCCCOC)[C@H](C)C1 [Example 129]
8.46 | COCCCCN1C[C@H](C)N(C(=O)c2cc3c(cc2C)[nH]c(=O)c2cnn(C4CCOCC4)c23)C[C@H]1C [Example 183]
8.18 | CCOCCC1CCN(C(=O)c2cc3c(cc2C)[nH]c(=O)c2cnn([C@H]4CCOC4)c23)CC1 [Example 201]
8.70 | COCCCN1CCN(C(=O)c2cc3c(cc2C)[nH]c(=O)c2cnn(CC4CCC4)c23)C[C@@H]1C [Example 648]
8.43 | Cc1cc2[nH]c(=O)c3cnn([C@H]4CCOC4)c3c2cc1C(=O)N1CCC(OC2CCC2)CC1 [Example 202]
8.48 | COCCCN1CCN(C(=O)c2cc3c(cc2C)[nH]c(=O)c2cnn(CC4CC4)c23)C[C@@H]1C [Example 640]
8.21 | CCOCC1CCN(C(=O)c2cc3c(cc2C)[nH]c(=O)c2cnn(C4CCOCC4)c23)C1 (stereo not shown) [Example 92]
7.70 | Cc1cc2[nH]c(=O)c3cnn(C4CCOCC4)c3c2cc1C(=O)N1CCN(CC(F)(F)F)CC1 [Example 427]
8.12 | Cc1cc2[nH]c(=O)c3cnn(C4CCOCC4)c3c2cc1C(=O)N1CCN(c2cnccn2)CC1 [Example 50]
8.60 | Cc1cc2[nH]c(=O)c3cnn(C4CCOCC4)c3c2cc1C(=O)N1CCC(OC2CCC2)CC1 [Example 169]
8.24 | COCCCCN1CCN(C(=O)c2cc3c(cc2C)[nH]c(=O)c2cnn(C4CCC(F)(F)CC4)c23)C[C@@H]1C [Example 193]
8.00 | COCC(F)(F)CN1CCN(C(=O)c2cc3c(cc2C)[nH]c(=O)c2cnn([C@H]4CCOC4)c23)CC1 [Example 166]
8.16 | COCCCCN1C[C@H](C)N(C(=O)c2cc3c(cc2C)[nH]c(=O)c2cnn(CC4CCC4)c23)C[C@H]1C [Example 189]
8.36 | COCCCCN1CCN(C(=O)c2cc3c(cc2C)[nH]c(=O)c2cnn(CC4CC4)c23)C[C@@H]1C [Example 195]
8.77 | Cc1cc2[nH]c(=O)c3cnn(C4CCOCC4)c3c2cc1C(=O)N1CCC(OCC(F)F)CC1 [Example 94]
7.28 | CCOCC1CCN(C(=O)c2cc3c(cc2C(F)(F)F)[nH]c(=O)c2cnn(C4CCOCC4)c23)CC1 [Example 152]
7.77 | CCOCCCN1CCN(C(=O)c2cc3c(cc2C)[nH]c(=O)c2cnn(C4CCC4)c23)CC1 [Example 70]
8.55 | Cc1cc2[nH]c(=O)c3cnn([C@H]4CCOC4)c3c2cc1C(=O)N1CCC(OCC(F)(F)F)CC1 [Example 203]
8.29 | CCOCC1CCN(C(=O)c2cc3c(cc2C)[nH]c(=O)c2cnn([C@H]4CCOC4)c23)CC1 [Example 148]
7.74 | COCCCCN1CCN(C(=O)c2cc3c(cc2OC)[nH]c(=O)c2cnn(C4CCCC4)c23)CC1 [Example 123]

pIC50 | Structure (SMILES)
7.80 | CCN1CCN(C(=O)c2cc3c(cc2C)[nH]c(=O)c2cnn(C4CCN(C)CC4)c23)C[C@@H]1c1ccccc1 [Example 214]
7.82 | CCOCCCCN1CCN(C(=O)c2cc3c(cc2C)[nH]c(=O)c2cnn(C4CCOCC4)c23)CC1 [Example 107]
7.49 | COCCCCN1CCN(C(=O)c2cc3c(cc2C)[nH]c(=O)c2cnn(CC4CCOCC4)c23)CC1 [Example 154]
7.62 | Cc1cc2[nH]c(=O)c3cnn(C4CCOCC4)c3c2cc1C(=O)N1CCC(O)(C(F)(F)F)CC1 [Example 221]
8.12 | Cc1cc2[nH]c(=O)c3cnn(CC4CCC4)c3c2cc1C(=O)N1C[C@@H](C)N(CCC(F)(F)F)C[C@@H]1C [Example 190]
8.33 | CCCOC1CCN(C(=O)c2cc3c(cc2C)[nH]c(=O)c2cnn([C@H]4CCOC4)c23)CC1 [Example 199]
7.51 | Cc1cc2[nH]c(=O)c3cnn(C4CCC4)c3c2cc1C(=O)N1CCN(CCC(F)(F)F)CC1 [Example 161]
7.92 | Cc1cc2[nH]c(=O)c3cnn(C4CCOCC4)c3c2cc1C(=O)N1CCC2(CCCO2)CC1 [Example 87]
8.08 | COCCCCN1C[C@@H]2C[C@H]1CN2C(=O)c1cc2c(cc1C)[nH]c(=O)c1cnn(C3CCOCC3)c12 [Example 145]
8.33 | Cc1cc2[nH]c(=O)c3cnn(C4CCOCC4)c3c2cc1C(=O)N1C[C@@H](C)N(CCC(F)(F)F)C[C@@H]1C [Example 184]
8.00 | COCCCN1CCN(C(=O)c2cc3c(cc2C)[nH]c(=O)c2cnn(C4CCC(F)(F)CC4)c23)C[C@@H]1C [Example 624]
8.23 | Cc1cc2[nH]c(=O)c3cnn(C4CCOCC4)c3c2cc1C(=O)N1CCC2(CC1)COc1ccccc12 [Example 283]
8.20 | Cc1cc2[nH]c(=O)c3cnn(C4CCOCC4)c3c2cc1C(=O)N1CCN(CCCOC(F)(F)F)CC1 [Example 173]
7.72 | Cc1cc2[nH]c(=O)c3cnn([C@H]4CCOC4)c3c2cc1C(=O)N1CCN(CCC(F)(F)F)CC1 [Example 185]
7.96 | Cc1ccc(OC2CCN(C(=O)c3cc4c(cc3C)[nH]c(=O)c3cnn(C5CCN(C)CC5)c34)CC2)nc1 [Example 213]
7.92 | Cc1cc2[nH]c(=O)c3cnn(C4CCOCC4)c3c2cc1C(=O)N1CCN(Cc2cccnc2)CC1 [Example 2, 7-methyl-8-{[4-(pyridin-3-ylmethyl)piperazin-1-yl]carbonyl}-1-(tetrahydro-2H-pyran-4-yl)-1,5-dihydro-4H-pyrazolo[4,3-c]quinolin-4-one dihydrochloride]
8.77 | Cc1cc2[nH]c(=O)c3cnn(C4CCC(F)(F)CC4)c3c2cc1C(=O)N1CCN(CCC(F)(F)F)[C@@H](C)C1 [Example 208]
8.36 | Cc1cc2[nH]c(=O)c3cnn([C@H]4CCOC4)c3c2cc1C(=O)N1CCC(OC[C@H](C)F)CC1 [Example 178]
7.92 | Cc1cc2[nH]c(=O)c3cnn(C4CCOCC4)c3c2cc1C(=O)N1CC2CN(Cc3ccccc3)CC2C1 (stereo not shown) [Example 74]
8.21 | COCCCCN1CCN(C(=O)c2cc3c(cc2C)[nH]c(=O)c2cnn(CC4CC(F)(F)C4)c23)C[C@@H]1C [Example 204]
